Results: patent US20040063906A1, “Pna analogues” (priority 2000, published 2004)
{LysNH2} = C-terminal lysine amide

How the values were obtained:
[1] = system: RNA antiparallel: 5′-AGA GUA UGA GUA-3′; assay: Thermal stability (Tm) of complex with antiparallel RNA; format: binding; conditions: medium salt buffer, pH 7.0
Protocol: (§1) The binding properties of pyr-PNA oligomer consisting of 10 monomers of the following sequence: H-CTC ATA CTC T-Lys-NH2 were investigated by measuring the thermal stability of the complexes formed with sequence complementary DNA and RNA, respectively, as compared to the stability for the corresponding aeg-PNA oligomer.
(§2) The stability expressed as the melting temperature (Tm), defined as the temperature at which 50% of the complexes have been dissociated, was determined as described by Arghya Ray et al (32).
(§3) Measured in medium salt buffer: 100 mM NaCl, 10 mM Na-phosphate, 0.1 mM EDTA, pH=7.0.

[2] = system: DNA parallel: 5′-dATG AGT ATG AGA-3′; assay: Thermal stability (Tm) of complex with parallel DNA; format: binding; conditions: medium salt buffer, pH 7.0
Protocol: as §1, §2, §3

[3] = system: DNA antiparallel: 5′-dAGA GTA TGA GTA-3′; assay: Thermal stability (Tm) of complex with antiparallel DNA; format: binding; conditions: pH 7.0; for Tm, DNA antiparallel, down: medium salt buffer
Protocol: as §1, §2, §3

poly A = assay: Thermal denaturation (Tm) with poly A; format: binding; conditions: for Melting temperature (Tm), Poly A: measured from 10 to 90 °C, medium salt buffer, pH 7.0, 0.5 K/min; for Melting temperature (Tm), Poly A, measured from 90 to 10 °C: value in parentheses
Excerpt: (§4) Binding. The binding of PNA 1164 and PNA 2121 to poly dA and poly A was studied by thermal denaturation (Tm, Table 4). Also listed are the values given by Hickman et. al. (29) The thermal stability results presented in Table 4 clearly indicate that a T5-PNA-oligomer having (2R, 4S)-pyrrolidine backbone (PNA 2121) forms stronger complexes with both poly dA and poly A as compared to the (2R, 4R)-pyrrolidine isomer (entry 3) and also compared to the parent aminoethylglycine PNA (PNA 1164, entry 1). These complexes are ascribed to triplexes and further studies on (pyrimidine-purine mixed sequences) pyrrolidine PNAs are required to establish whether the present results can be extended to duplex structures and are generally valid. Such studies are now in progress.

poly dA = assay: Thermal denaturation (Tm) with poly dA; format: binding; conditions: for Melting temperature (Tm), Poly dA: measured from 10 to 90 °C, medium salt buffer, pH 7.0, 0.5 K/min; for Melting temperature (Tm), Poly dA, measured from 90 to 10 °C: value in parentheses
Excerpt: as §4

[4] = system: DNA target 5′-d(TTT-TXT-TTT-T)-3′, X = G; assay: Melting temperature (Tm) with mismatch DNA target, X = G; format: binding; conditions: Table 3; for Melting temperature (Tm), X = G: heating curve, medium salt buffer, pH 7.0; for Melting temperature (Tm), X = G, cooling curve: value in parentheses = cooling curve
Excerpt: (§5) The complex between PNA 2110 and DNA was further evaluated.

5′-d(T)10 = assay: Melting temperature (Tm) with 5′-d(T)10; format: binding; conditions: for Melting temperature (Tm), 5′-d(T)10 / Melting temperature (Tm), 5′-d(T)10, cooling curve: Table 2; for Melting temperature (Tm), 5′-d(T)10 / Melting temperature (Tm), X = T: heating curve; for Melting temperature (Tm), 5′-d(T)10 / Melting temperature (Tm), 5′-d(T)10, cooling curve / Melting temperature (Tm), X = T: medium salt buffer, pH 7.0; for Melting temperature (Tm), 5′-d(T)10: 1 K/min; for Melting temperature (Tm), 5′-d(T)10, cooling curve / Melting temperature (Tm), X = T, cooling curve: value in parentheses = cooling curve; for Melting temperature (Tm), X = T / Melting temperature (Tm), X = T, cooling curve: Table 3, DNA target 5′-d(TTT-TXT-TTT-T)-3′
[5] = system: DNA target 5′-d(TTT-TXT-TTT-T)-3′, X = C; assay: Melting temperature (Tm) with mismatch DNA target, X = C; format: binding; conditions: Table 3; for Melting temperature (Tm), X = C: heating curve, medium salt buffer, pH 7.0; for Melting temperature (Tm), X = C, cooling curve: value in parentheses = cooling curve
Excerpt: as §5

5′-r(U)10 [6] = assay: Melting temperature (Tm) with 5′-r(U)10; format: binding; conditions: for Melting temperature (Tm), 5′-r(U)10 / Melting temperature (Tm), 5′-r(U)10, cooling curve: Table 2, medium salt buffer, pH 7.0; for Melting temperature (Tm), 5′-r(U)10: heating curve, 1 K/min; for Melting temperature (Tm), 5′-r(U)10, cooling curve: value in parentheses = cooling curve
5′-r(U)10 [7] = conditions: earlier work (17); cited from earlier work
[8] = system: complementary DNA oligomers; assay: Melting temperature (Tm) with complementary DNA oligomer, Table 1; format: binding; conditions: medium salt buffer: 100 mM NaCl, 10 mM phosphate, 0.1 mM EDTA, pH 7.0; heating rate 1 K/min; UV 254 nm
Protocol: (§6) Binding affinity. The binding affinity towards complementary RNA and DNA oligomers was measured by obtaining the Tm-curves (Table 1). As expected, incorporation of both the pyrrolidinone and the pyrrolidine analogue into the PNA strand results in destabilization against DNA and RNA compared to unmodified PNA (entry 1 vs. 2 and 3).

[9] = system: complementary RNA oligomers; assay: Melting temperature (Tm) with complementary RNA oligomer, Table 1; format: binding; conditions: medium salt buffer: 100 mM NaCl, 10 mM phosphate, 0.1 mM EDTA, pH 7.0; heating rate 1 K/min; UV 254 nm
Protocol: as §6

[10] = system: DNA target 5′-d(TTT-TXT-TTT-T)-3′, X = A; assay: Melting temperature (Tm) with mismatch DNA target, X = A; format: binding; conditions: Table 3
Excerpt: as §5

[11] = as opposed to the parent PNA 186
[12] = compared with PNA 186 (Table 2, entry 1 and 3)
[13] = melting curves at pH 9 (not shown)

H-CTC ATA CTC T-Lys-NH2 [PNA 2232] (CTCATACTCT; all peptide nucleic acid (PNA), 3' {LysNH2}; further chemistry not fully specified) [pyr PNA oligomer of 10 monomers]
Tm, RNA antiparallel, down [1]: (41.0°) °C | Tm, DNA parallel, down [2]: (61.5°) °C | Tm, DNA antiparallel, down [3]: (58.0°) °C

H-(T)5-LysNH2 [PNA 1164, reference compound]
Melting temperature (Tm), Poly A (poly A): 64.0 °C | Melting temperature (Tm), Poly A, measured from 90 to 10 °C (poly A): 58.5 °C | Melting temperature (Tm), Poly dA (poly dA): 53.0 °C | Melting temperature (Tm), Poly dA, measured from 90 to 10 °C (poly dA): 45.5 °C

H-Gly-(A)10-NH2 [PNA 186, reference compound]
Melting temperature (Tm), X = G [4]: 40.5 (40.5) °C | Melting temperature (Tm), X = G, cooling curve [4]: 40.5 (40.5) °C | Melting temperature (Tm), 5′-d(T)10 (5′-d(T)10): 55.5 (55.5) °C | Melting temperature (Tm), 5′-d(T)10, cooling curve (5′-d(T)10): 55.5 (55.5) °C | Melting temperature (Tm), X = T (5′-d(T)10): 55.5 °C | Melting temperature (Tm), X = T, cooling curve (5′-d(T)10): (55.5) °C | Melting temperature (Tm), X = C [5]: 36.5 (36.5) °C | Melting temperature (Tm), X = C, cooling curve [5]: 36.5 (36.5) °C | Melting temperature (Tm), 5′-r(U)10 (5′-r(U)10 [6]): 35.5 (35.5) °C | Melting temperature (Tm), 5′-r(U)10, cooling curve (5′-r(U)10 [6]): 35.5 (35.5) °C

H-(A*)10-LysNH2 [PNA 2020, reference compound]
Tm depression per modification as compared to unmodified PNA against r(U)10 (5′-r(U)10 [7]): 1 °C | Melting temperature (Tm), 5′-r(U)10 (5′-r(U)10 [6]): 25.5 °C

H-CTC ATA CTC T-Lys-NH2 [PNA 2244] (CTCATACTCT; all peptide nucleic acid (PNA), 3' {LysNH2}) [aeg PNA oligomer of 10 monomers, reference compound]
Tm, DNA parallel, down [2]: (43.5°) °C | Tm, DNA parallel, up [2]: 44.0° °C | Tm, DNA antiparallel, down [3]: (43.0°) °C | Tm, DNA antiparallel, up ([3]; medium salt buffer: 100 mM NaCl, 10 mM Na-phosphate, 0.1 mM EDTA): 45.0° °C

H-TAC-TCA#-TAC-TCT-LysNH2 [PNA 2104]
Melting temperature (Tm), DNA [8]: 28.5 °C | Melting temperature (Tm), RNA [9]: 44.5 °C

H-(T#)5-LysNH2 [PNA 2121]
Melting temperature (Tm), Poly A (poly A): 79.0 °C | Melting temperature (Tm), Poly A, measured from 90 to 10 °C (poly A): 51.5 °C | Melting temperature (Tm), Poly dA (poly dA): 78.5 °C | Melting temperature (Tm), Poly dA, measured from 90 to 10 °C (poly dA): 44.0 °C

H-TAC-TCA*-TAC-TCT-LysNH2 (TACTCATACTCT; chemistry not fully specified) [PNA 2075, PNA dodecamer with one A* = (3S, 5R) pyrrolidone PNA monomer]
Melting temperature (Tm), DNA [8]: 41.0 °C | Melting temperature (Tm), RNA [9]: 53.8 °C

H-TAC-TCA-TAC-TCT-LysNH2 (TACTCATACTCT; all peptide nucleic acid (PNA), 3' {LysNH2}) [PNA 2005, unmodified PNA dodecamer]
Melting temperature (Tm), DNA [8]: 49.5 °C | Melting temperature (Tm), RNA [9]: 59.5 °C

H-(A#)10-LysNH2 [PNA 2110]
Melting temperature (Tm), X = G [4]: 68.5 °C | Melting temperature (Tm), X = G, cooling curve [4]: 37.0 °C | Melting temperature (Tm), X = A ([10]; heating curve, medium salt buffer, pH 7.0): 67.5 °C | Melting temperature (Tm), X = A, cooling curve ([10]; value in parentheses = cooling curve): 35.5 °C | Melting temperature (Tm), 5′-d(T)10 (5′-d(T)10): 79.0 °C | Melting temperature (Tm), 5′-d(T)10, cooling curve (5′-d(T)10): 41.0 °C | Melting temperature (Tm), X = T (5′-d(T)10): 79.0 °C | Melting temperature (Tm), X = T, cooling curve (5′-d(T)10): (41.0) °C | Hysteresis of melting curves against DNA (5′-d(T)10; [11]): significant hysteresis was detected | ΔTm/mod towards DNA (5′-d(T)10; [12]): +2.5 °C | Recognition of 5′-d(T)10 (sequence specificity) (5′-d(T)10; from mismatch Tm values of Table 3): sequence specific | Lowering of Tm at pH 9 instead of pH 7, against DNA (5′-d(T)10; [13]): about 3.5 °C | Melting temperature (Tm), X = C [5]: 71.0 °C | Melting temperature (Tm), X = C, cooling curve [5]: 36.0 °C | Melting temperature (Tm), 5′-r(U)10 (5′-r(U)10 [6]): 60.0 °C | Melting temperature (Tm), 5′-r(U)10, cooling curve (5′-r(U)10 [6]): 45.5 °C | Hysteresis of melting curves against RNA (5′-r(U)10 [6]; [11]): significant hysteresis was detected | ΔTm/mod towards RNA (5′-r(U)10 [6]; [12]): +2.5 °C | Lowering of Tm at pH 9 instead of pH 7, against RNA (5′-r(U)10 [6]; [13]): ~1.5 °C
